Legend:
[1] = tested on: Pyk2; experiment: Pyk2 Y-402 phosphorylation immunoblot, Chang cells; assay type: cell-based, human; conditions: for HBx activation of Pyk2: 0.5 mM EGTA 2 h, 50 μM BAPTA-AM 2 h, 3 μM CsA 4 h
Description: FIG. 9. Chang cells or HepG2 cells were transfected with expression vectors pAdCMVX (HBx), pAdCMVXo (HBx−), pPKM, or empty vectors pAdCMV or pPRK5. (A) Chang cells were treated with 50 μM BAPTA-AM for 2 h, equal protein amounts resolved by gel-electrophoresis and immunoblotted with antibodies to Pyk2 or activated Y-402 phosphorylated Pyk2.
(§1) TPA treatment was for […] using 20 ng/ml. […] (C) Chang cells transfected with vector or pAdCMVX were treated 2h with 0.5 mM or 3 mM EGTA, and Pyk2 examined by immunoblot. (D) HepG2 cells were transfected with HBV, HBx(−) HBV genomic DNA or vector, complemented by 2 μg plasmid pAdCMVX. Cytoplasmic HBV core particles were isolated from equal numbers of cells (Klein, et al. 1997, EMBOJ 18: 5019-5027) and viral DNA replication intermediates detected by Southern blot as described (Klein, et al. 1997, EMBOJ 18: 5019-5027). The smear represents 4 kb (mature double-stranded DNA) to 2 kb (first-strand single-stranded DNA). Northern blot analysis was carried out using poly(A+) RNA extracted from equal numbers of cells. (E) Southern and Northern blot analyses were performed on HepG2 cells transfected as above with or without pPKM or PPRKS. Typical experiments are shown.
Studies determined whether HBx acts on intracellular calcium to activate Pyk2. […] HBx activation of Pyk2 therefore involves cytosolic calcium action. Studies next determined whether HBx acts on calcium channels in the endoplasmic reticulum (ER), mitochondria or plasma membrane (PM) for its activity.

[2] = tested on: HBV; experiment: HBV DNA replication in cytoplasmic core particles, Southern blot, HepG2 cells; assay type: cell-based, hepatitis B virus; conditions: for increase of reverse transcription and DNA replication of (HBx−)HBV: HepG2 cells, 4 d, valinomycin 1 nM, thapsigargin 20 nM
Description: Cytoplasmic viral core particles were isolated and HBV DNA replication and mRNA levels detected by Southern and Northern blot hybridization.
The requirement for cytosolic calcium and HBx activation of Pyk2 in HBV replication was examined. […] HepG2 cells were transfected with vector alone, wild type HBV genomic DNA, or HBx(−) genomic DNA, cytoplasmic viral core particles, the structures in which viral DNA replication takes place, were isolated and the level of viral DNA replication was examined (FIG. 9D).
The requirement for cytosolic calcium in HBx-dependent viral replication was investigated.

[3] = tested on: HBV; experiment: HBV mRNA levels, Northern blot, HepG2 cells; assay type: cell-based, hepatitis B virus; conditions: for cytoplasmic levels of HBV pgRNA and HBsAg mRNAs: HepG2 cells, 4 d, valinomycin 1 nM, thapsigargin 20 nM
Description: as §1
FIG. 10. […] Products were resolved by electrophoresis and detected by autoradiography. Typical results are shown.
(§2) FIG. 11. (A) HepG2 cells were with HBV or HBx(−) HBV genomic DNA. At 24 h post-transfection cells were treated with 1 nM valinomycin (val.) or 20 nM thapsigargin (thap.) for 4 d, cytoplasmic core particles were isolated from equal numbers of cells and viral replication examined by Southern blot hybridization. HBV transcription was analyzed by Northern blot hybridization. (B) Nontransfected HepG2 cells 5were treated with valinomycin or thapsigargin as above, and the abundance of Pyk2 or activated Pyk2 Y-402 phosphorylation determined by immunoblot
The requirement for cytosolic calcium and HBx activation of Pyk2 in HBV replication was examined. […]
Studies next determined whether HBx activity can be replaced by ionophoric agents that increase cytosolic calcium. […]

[4] = tested on: Pyk2; experiment: Pyk2 activity (Y-402 phosphorylation immunoblot) in nontransfected HepG2 cells; assay type: cell-based, human; conditions: valinomycin 1 nM, thapsigargin 20 nM
Description: as §2
Studies next determined whether HBx activity can be replaced by ionophoric agents that increase cytosolic calcium. Cells were transfected with plasmids expressing wild type HBV or HBx(−) genomes and treated for 4 d with low, nontoxic levels of calcium mobilizing agents valinomycin (1 nM) or thapsigargin (20 nM). Reverse transcription and DNA replication of (HBx−)HBV were increased 20 fold by valinomycin to wild type (HBx+) levels, and 10 fold by thapsigargin (FIG. 11A).

[5] = tested on: c-Src; experiment: c-Src immunoprecipitation and in vitro kinase assay (auto-phosphorylation, enolase trans-phosphorylation), NIH 3T3 cells; assay type: cell-based; conditions: serum-starved NIH 3T3 cells, PDGF (100 ng/ml) for 5 minutes
Description: FIG. 1. Serum-starved NIH 3T3 cells were infected with AdCMV-X or -Xo viruses, c-Src or c-Fyn was immunoprecipitated, the pellet washed and assayed by incubation with the substrate enolase and [γ-^32P] ATP. Products were resolved by SDS-10%-PAGE then visualized and quantitiated by PhosphorImage analysis.
c-Src (FIG. 1A) or c-Fyn (FIG. 1B) were immunoprecipitated 8 h p.i. from NIH 3T3 cell lysates expressing HBx or HBxo. Where indicated, cells were incubated with PDGF (100 ng/ml) for 5 min.
Src kinase assays were carried out essentially as described (Kypta et al., 1990, Cell 62:481-492). Briefly, NIH 3T3 or Chang cells were lysed in buffer containing 1% NP-40, 150 mM NaCl, 20 mM Tris HCl pH 8, 2.5 mM EDTA, 1 mM Na3VO4, 50 mM NaF, 1 mM PMSF, 10 μg/ml aprotinin, and 10 μg/ml leupeptin. Src and Fyn kinase activity were measured by immunoprecipitating either Src (1 μg anti-Src antibodies) or Fyn (1 μg/ml anti-Fyn antibodies) from equal amounts of cell lysate. […] For the reactions containing the Src peptide substrate, TCA was added to a final concentration of 20%, an aliquot was spotted onto phosphocellulose paper (UBI), the filters were washed 3×5 minutes in 0.75% phosphoric acid and once in acetone, dried and analyzed by scintillation counting. […]

[6] = Chang cells, high concentration of EGTA (3 mM)

| Compound | HBx activation of Pyk2 ([1]; Chang cells) | stimulation of Pyk2 activity [4] [fold] | increase of reverse transcription and DNA replication of (HBx−)HBV [2] [fold] | cytoplasmic levels of HBV pgRNA and HBsAg mRNAs [3] | other results |
| --- | --- | --- | --- | --- | --- |
| CC(=O)OCOC(=O)CN(CC(=O)OCOC(C)=O)c1ccccc1OCCOc1ccccc1N(CC(=O)OCOC(C)=O)CC(=O)OCOC(C)=O [BAPTA-AM] | prevented | – | – | – | HBx-induced Pyk2 phosphorylation at Y-402 ([1]; HBx transfected Chang cells, 50 μM (2 times IC50) for 2 h): prevented; Pyk2 levels ([1]; HBx transfected Chang cells, 50 μM for 2 h): without altering; impairment of HBV viral DNA replication ([2]; HBV genome transfected HepG2 cells, low levels of BAPTA-AM (2.5 μM or 25 μM) for 4 d): 10 fold; HBV mRNA levels ([3]; HBV genome transfected HepG2 cells, low levels of BAPTA-AM for 4 d): without strongly reducing |
| O=C(O)CN(CCOCCOCCN(CC(=O)O)CC(=O)O)CC(=O)O [EGTA] | no effect | – | – | – | TPA activation of Pyk2 phosphorylation [1, 6]: did not block; activation of Pyk2 by HBx [1, 6]: partially inhibited |
| C/C=C(/C)C(=O)O[C@H]1C(C)=C2[C@H]([C@@H]1OC(=O)CCCCCCC)[C@@](C)(OC(C)=O)C[C@H](OC(=O)CCC)[C@@]1(O)[C@H]2OC(=O)[C@@]1(C)O [thapsigargin] | – | 3 | 10 | Neither agent increased | – |
| CC(C)[C@@H]1NC(=O)[C@H](C)OC(=O)[C@@H](C(C)C)NC(=O)[C@@H](C(C)C)OC(=O)[C@H](C(C)C)NC(=O)[C@H](C)OC(=O)[C@@H](C(C)C)NC(=O)[C@@H](C(C)C)OC(=O)[C@H](C(C)C)NC(=O)[C@H](C)OC(=O)[C@@H](C(C)C)NC(=O)[C@@H](C(C)C)OC1=O [valinomycin] | – | 5 | 20 | Neither agent increased | – |
| PDGF | – | – | – | – | activation of c-Src (auto- and trans-phosphorylation) [5]: 3-4 fold |

Source: US20020045191A1, “Inhibition of the SRC kinase family pathway as a method of treating HBV infection and hepatocellular carcinoma” (priority 2000, published 2002)
